The target of one experiment is T1, native MDH (Sus scrofa, UniProt P00346).
T1 construct: soluble pig heart MDH from Roche, product #10127248001; purchased Roche 10127248001; host or cells: pig heart
T1 sequence (P00346 25-338): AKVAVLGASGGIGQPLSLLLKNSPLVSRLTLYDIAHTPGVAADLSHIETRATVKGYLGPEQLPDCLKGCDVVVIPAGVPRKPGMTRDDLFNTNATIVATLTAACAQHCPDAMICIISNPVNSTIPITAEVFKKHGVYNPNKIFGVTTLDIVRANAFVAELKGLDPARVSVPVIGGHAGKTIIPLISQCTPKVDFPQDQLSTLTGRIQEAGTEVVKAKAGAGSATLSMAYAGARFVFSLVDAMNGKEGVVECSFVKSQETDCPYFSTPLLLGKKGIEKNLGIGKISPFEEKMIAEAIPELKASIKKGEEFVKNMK
The experiment can be described thus: Native MDH enzymatic activity counter-screen. The class given is biochemical, pig. In short, it runs like this:
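GroEL/ES-refolded MDH (45 min, 37 °C, no compound) quenched with EDTA before compound addition, so only refolded enzyme is exposed. Activity started with 20 mM sodium mesoxalate and 2.4 mM NADH stock (50 mM Tris pH 7.4, 50 mM KCl, 1 mM DTT); NADH A340 followed to ~90% consumption.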
Background: Counterscreens check selectivity or assay interference.

The target in a further experiment is T2, HSP60/10 (Homo sapiens, UniProt P10809).
T2 construct: octa-Histidine (His8) tag, TEV-cleavable (N, cleaved yes); made in house; host or cells: HSP60 in Rosetta 2 (DE3) E. coli; HSP10 in Rosetta 2 (DE3) pLysS
The experiment can be described thus: HSP60/10-mediated dMDH refolding assay. The class given is biochemical. In short, it runs like this:
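Pre-formed chaperonin–denatured pig heart MDH complexes (50 nM GroEL or HSP60, 60 nM GroES or HSP10, 12 nM dMDH) refolded with 1 mM ATP and compound (100 μM–46 nM) at 37 °C, ~20-40 min for GroEL/ES or ~40-60 min for HSP60/10. After EDTA quench, MDH activity was read as NADH loss at A340. IC50 came from variable-slope regression.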

[1] abbreviates: Table 3, compounds added after refolding and EDTA quench, read-out: Biochemical Assay IC50 Native MDH Activity.
The mark [2] stands for this setting: Table 3, 37° C., 1 mM ATP, read-out: Biochemical Assay IC50 HSP60/10-dMDH Refolding.
Where [3] appears, read: Table 1, compounds added after refolding and EDTA quench, read-out: Biochemical Assay IC50 Native MDH Activity.
[4] abbreviates: Table 1, 37° C., 1 mM ATP, read-out: Biochemical Assay IC50 HSP60/10-dMDH Refolding.

Where two headings read alike, the source gives them in different places.

T2 sequence (P10809 27-573): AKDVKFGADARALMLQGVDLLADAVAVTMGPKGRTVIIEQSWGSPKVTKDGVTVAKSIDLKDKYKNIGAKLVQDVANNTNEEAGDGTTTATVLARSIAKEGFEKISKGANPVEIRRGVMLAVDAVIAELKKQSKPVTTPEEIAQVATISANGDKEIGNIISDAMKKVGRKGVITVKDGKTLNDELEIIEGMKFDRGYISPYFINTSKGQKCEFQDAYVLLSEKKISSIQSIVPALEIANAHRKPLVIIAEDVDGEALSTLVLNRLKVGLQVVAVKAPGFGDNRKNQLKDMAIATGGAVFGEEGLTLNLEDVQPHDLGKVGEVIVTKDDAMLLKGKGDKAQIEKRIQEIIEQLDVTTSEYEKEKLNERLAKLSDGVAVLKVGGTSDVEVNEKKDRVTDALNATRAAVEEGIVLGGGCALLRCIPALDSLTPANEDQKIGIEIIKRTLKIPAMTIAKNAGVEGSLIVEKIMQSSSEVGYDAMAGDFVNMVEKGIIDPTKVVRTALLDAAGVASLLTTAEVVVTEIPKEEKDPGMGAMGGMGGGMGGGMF

Regarding `COc1ccc(NC(=O)c2cc(Cl)ccc2OC)cc1` [Compound 112, 5-chloro-2-methoxy-N-(4-methoxyphenyl)benzamide], the IC50 on native MDH (setting [1]) was more than 63 µM; at HSP60/10 (setting [2]), more than 100 µM.

For `COc1ccc(NC(=O)c2cc(Cl)ccc2O)cc1` [Compound 113, 5-chloro-2-hydroxy-N-(4-methoxyphenyl)benzamide], the IC50 at native MDH (setting [1]) is more than 63 µM; on HSP60/10 (setting [2]) it was more than 100 µM.

For `COc1ccc(Cl)cc1C(=O)Nc1ccc(O)cc1` [Compound 114, 5-chloro-N-(4-hydroxyphenyl)-2-methoxybenzamide], the IC50 at native MDH (setting [1]) is more than 63 µM; at HSP60/10 (setting [2]) it was more than 100 µM.

With `O=C(Nc1ccc(O)cc1)c1cc(Cl)ccc1O` [Compound 115, 5-chloro-2-hydroxy-N-(4-hydroxyphenyl)benzamide], the IC50 was more than 63 µM at native MDH (setting [1]) and more than 100 µM at HSP60/10 (setting [2]).

For the compound `COc1ccc(Cl)cc1C(=O)Nc1ccccc1` [Compound 116, 5-chloro-2-methoxy-N-phenylbenzamide], the IC50 is more than 63 µM at native MDH (setting [1]) and more than 100 µM at HSP60/10 (setting [2]).

As to `O=C(Nc1ccccc1)c1cc(Cl)ccc1O` [Compound 117, 5-chloro-2-hydroxy-N-phenylbenzamide], the IC50 on native MDH (setting [1]) was more than 63 µM; on HSP60/10 (setting [2]), more than 100 µM.

On to `O=C(Nc1ccc([N+](=O)[O-])cc1Cl)c1cc(Cl)ccc1O` [Niclosamide, reference compound], for which the IC50 was more than 63 µM at native MDH (setting [3]), more than 63 µM at native MDH (setting [1]), more than 100 µM at HSP60/10 (setting [4]) and more than 100 µM on HSP60/10 (setting [2]).

In the case of `CC(=O)Oc1ccccc1C(=O)Nc1ncc([N+](=O)[O-])s1` [Nitazoxanide, reference compound], the values for the IC50 on native MDH (setting [3]) and on HSP60/10 (setting [4]) were more than 63 µM and more than 100 µM, respectively.

In the case of `O=C(Nc1cc(Cl)cc(Cl)c1O)c1c(O)c(Cl)cc(Cl)c1Cl` [Oxyclosanide, reference compound], the IC50 on native MDH (setting [3]) turned out to be 54 µM; at HSP60/10 (setting [4]), 28 µM.

For `O=C(Nc1ccc(Oc2ccc(Cl)cc2)c(Cl)c1)c1cc(I)cc(I)c1O` [Rafoxanide, reference compound], the figures for the IC50 on native MDH and at HSP60/10 were 17 µM and 2.7 µM, respectively.

Turning to `O=C(Nc1ncc([N+](=O)[O-])s1)c1ccccc1O` [Tizoxanide, reference compound], the IC50 on native MDH (setting [3]) is more than 63 µM; on HSP60/10 (setting [4]) it was more than 100 µM.

These data come from patent US20230406831A1, “COMPOUNDS AND METHODS OF INHIBITING BACTERIAL CHAPERONIN SYSTEMS” (THE TRUSTEES OF INDIANA UNIVERSITY, priority 2020, published 2023).
